Measured values published in patent US6124290A, “Polycyclic phthalazine compounds and their use” (Gruenenthal GmbH, priority 1996, dated 2000).
Values after ≈ are worked out from the molar mass of the structure shown. Where two headings read alike, the source gives them in different places.

Columns and labels:
[1] = test system: Enterococcus faecium 70/90; assay: MIC, micro-broth dilution test according to DIN 58 940 (Part 8); type: cell-based; settings: for MIC: Enterococcus faecium
Method: (§1) The minimum inhibiting concentration (MIC) of the compounds was tested, in a micro-broth dilution test according to DIN 58 940 (Part 8), against the following bacterial strains: Staphylococcus aureus, strains 8325-4 (a sensitive Staphylococcus aureus strain which is representative of the species), NCTC 6571 (a sensitive international control strain), 108/83 (an "old" MRSA without quinolone-resistance), 134/94 (a "new" MRSA, with quinolone-resistance), Staphylococcus epidermidis CCM 2124 (a sensitive control strain), Enterococcus faecium 70/90 (a vancomycin-resistant strain) and 64/3 (a sensitive strain). The known substances vancomycin, teicoplanin and ciprofloxacin were used for comparison in the tests, even though they are structurally different.

[2] = test system: Staphylococcus aureus 108/83; assay: as above; type: cell-based; settings: for MIC: Staphylococcus aureus, read-out: MIC, Staphylococcus aureus 108/83
Method: as §1

[3] = test system: Staphylococcus aureus 134/94; assay: as above; type: cell-based; settings: for MIC: Staphylococcus aureus, read-out: MIC, Staphylococcus aureus 134/94
Method: as §1

[4] = test system: Staphylococcus aureus 8325-4; assay: as above; type: cell-based
Method: as §1

[5] = test system: Staphylococcus aureus NCTC 6571; assay: as above; type: cell-based; settings: NCTC6571, sensitive international control strain
Method: as §1

[6] = test system: Staphylococcus epidermidis CCM 2124; assay: as above; type: cell-based; settings: for MIC: Staphylococcus epidermidis
Method: as §1

[7] = test system: Enterococcus faecium 64/3; assay: as above; type: cell-based; settings: for MIC: Enterococcus faecium
Method: as §1, with “strain).” for “strain). The known substances vancomycin, teicoplanin and ciprofloxacin were used for comparison in the tests, even though they are structurally different.”

[8] = background section; cited from earlier work
[9] = 70/90, vancomycin-resistant strain, read-out: MIC, Enterococcus faecium 70/90
[10] = "old" MRSA, without quinolone-resistance
[11] = "new" MRSA, with quinolone-resistance
[12] = 83254, sensitive Staphylococcus aureus strain, representative of the species, read-out: MIC, Staphylococcus aureus 8325-4
[13] = CCM2124, sensitive control strain, read-out: MIC, Staphylococcus epidermidis CCM 2124
[14] = 64/3, sensitive strain, read-out: MIC, Enterococcus faecium 64/3
[15] = Staphylococcus aureus, 83254, read-out: MIC, Staphylococcus aureus 8325-4
[16] = CCM2124, read-out: MIC, Staphylococcus epidermidis CCM 2124

COc1c2c(c(O)c3c1C(=O)c1c(cc(O)c(C)c1O)C3=O)-c1c(cc3cnn(CC(=O)O)c(=O)c3c1O)CC2 [Substance 3, 10,12, 15,16-tetrahydroxy-8-methoxy-2-carboxynmethyl-11-methyl-1,9,14-trioxo-1,2,6,7,9,14-hexahydro-naphthaceno-[1,2-g]-phthalazine]
MIC [1, 9]: 2000 µg/mL (≈ 3670 µM) | MIC [2, 10]: 63 µg/mL (≈ 116 µM) | MIC [3, 11]: 250 µg/mL (≈ 459 µM) | MIC [4, 12]: 63 µg/mL (≈ 116 µM) | MIC [5]: < 125 µg/mL | MIC [6, 13]: < 125 µg/mL | MIC [7, 14]: 500 µg/mL (≈ 918 µM)

CCC(C(=O)O)n1ncc2cc3c(c(O)c2c1=O)-c1c(O)c2c(c(OC)c1CC3)C(=O)c1c(cc(O)c(C)c1O)C2=O (racemic) [Substance 4]
MIC [2, 10]: 32 µg/mL (≈ 55.9 µM) | MIC [3, 11]: 16 µg/mL (≈ 27.9 µM) | MIC [4, 12]: 63 µg/mL (≈ 110 µM)

teicoplanin
MIC, Enterococcus faecium 70/90 ([1]; vancomycin-resistant strain): 256000 µg/mL | MIC, Staphylococcus aureus 108/83 [2, 10]: 500 µg/mL | MIC, Staphylococcus aureus 134/94 [3, 11]: 500 µg/mL | MIC, Staphylococcus aureus 8325-4 ([4]; sensitive Staphylococcus aureus strain, representative of the species): 500 µg/mL | MIC, Staphylococcus epidermidis CCM 2124 ([6]; sensitive control strain): 500 µg/mL | MIC, Enterococcus faecium 64/3 ([7]; sensitive strain): < 250 µg/mL

CN[C@H](CC(C)C)C(=O)N[C@H]1C(=O)N[C@@H](CC(N)=O)C(=O)N[C@H]2C(=O)N[C@H]3C(=O)N[C@H](C(=O)N[C@H](C(=O)O)c4cc(O)cc(O)c4-c4cc3ccc4O)[C@H](O)c3ccc(c(Cl)c3)Oc3cc2cc(c3O[C@@H]2O[C@H](CO)[C@@H](O)[C@H](O)[C@H]2O[C@H]2C[C@](C)(N)[C@H](O)[C@H](C)O2)Oc2ccc(cc2Cl)[C@H]1O [vancomycin]
MIC ([2]; MRSA): 500 µg/mL (≈ 345 µM) | MIC ([3]; MRSA): 500 µg/mL (≈ 345 µM) | MIC [4, 15]: 500 µg/mL (≈ 345 µM) | MIC [6, 16]: 500 µg/mL (≈ 345 µM) | MIC ([7]; 64/3, read-out: MIC, Enterococcus faecium 64/3): < 250 µg/mL

COc1c2c(c(O)c3c1C(=O)c1c(cc(O)c(C)c1O)C3=O)-c1c(cc3cnn(-c4ccc(C(=O)O)cc4)c(=O)c3c1O)CC2 [Substance 1]
MIC [1, 9]: 500 µg/mL (≈ 824 µM) | MIC [2, 10]: 250 µg/mL (≈ 412 µM) | MIC [3, 11]: 500 µg/mL (≈ 824 µM) | MIC [4, 12]: 500 µg/mL (≈ 824 µM) | MIC [5]: < 125 µg/mL | MIC [6, 13]: < 125 µg/mL | MIC [7, 14]: 500 µg/mL (≈ 824 µM)

O=C(O)c1cn(C2CC2)c2cc(N3CCNCC3)c(F)cc2c1=O [ciprofloxacin]
MIC ([1]; 70/90, read-out: MIC, Enterococcus faecium 70/90): 1000 µg/mL (≈ 3020 µM) | MIC ([2]; MRSA): 250 µg/mL (≈ 754 µM) | MIC ([3]; MRSA): 16000 µg/mL (≈ 48300 µM) | MIC [4, 15]: 250 µg/mL (≈ 754 µM) | MIC [6, 16]: 250 µg/mL (≈ 754 µM)

COc1c2c(c(O)c3c1C(=O)c1c(cc(O)c(C)c1O)C3=O)-c1c(cc3c(c1O)C(=O)OC3O)CC2 (stereo not shown) [Madurahydroxylactone, 3,9,11,14,15-pentahydroxy-10-methyl-7-methoxy-1,8,13-trioxo-1,3,5,6,8,13-hexahydro-naphthaceno-[1,2-f]-benzoisofurane]
biological efficacy [8]: unsatisfactory biological efficacy
